Laboratory results reported in PMC3527569, “Anti-Inflammatory and Vasoprotective Activity of a Retroviral-Derived Peptide, Homologous to Human Endogenous Retroviruses: Endothelial Cell Effects” (PLoS ONE, 2012).
Entries after “also recorded” stand apart in the source; their conditions may differ. Where a SMILES comes first, the peptide text is derived from it. Bridges are numbered along the chain shown (N, C = ends). Roman numbers before positions name the chains, in order.

Legend:
HUVEC [1] = test: [125I]-MN20054 binding/uptake by HUVEC; set-up: species or system human; conditions: 100-fold excess unlabeled peptide, 60 min; for inhibition of association of [125I]-MN20054 with HUVEC: 37°C, triplicate wells (Figure 6C)
Procedure: For binding/uptake studies on endothelial cell, HUVEC were grown to confluence in 12-well tissue culture plates. Forty pmol of [^125I]-MN20054 (∼20 Ci/mmol) in PBS with 0.5% BSA, pH 7.5, was added in a volume of 1.0 ml in the presence or absence of a 100-fold excess of the indicated competitor. The plates were allowed to incubate for 1 h at 37°C on a rocking platform and the wells were aspirated and washed 3X with 2.0 ml of ice-cold PBS/BSA. One ml of 1.0 N NaOH was added to each well for 30 min at RT to solubilize the cells and then 0.9 ml was removed from each well and counted in a gamma scintillation spectrophotometer.

[2] = tested on: inflammatory accumulation of monocytes/macrophages; test: Mouse NaIO4-induced inflammatory peritonitis model; format: in vivo, mouse (CD-1); conditions: doses as high as 40 µg (10 nmol)
Procedure: Effects of test compounds on the inflammatory accumulation of monocytes/macrophages or neutrophils in vivo were determined using a mouse peritonitis model. Briefly, groups of five 6–8 week old CD-1 outbred mice (Charles River; Raleigh, NC) were injected intraperitoneally (i.p.) with 1.0 ml of a sterile inflammatory stimulus (NaIO4; 5 mM in sterile isotonic saline; Sigma; St. Louis, MO). This procedure results in a dramatic accumulation of neutrophils in the peritoneal cavity which peaks at 6–8 h post injection, followed by an accumulation of monocytes/macrophages which peaks at 48–72 h post injection. Mice were euthanized by CO2 asphyxiation at either 6 h (for neutrophils) or 48 h (for monocyte/macrophages), the peritoneal cavities lavaged with two 10-ml washes of heparinized (10 u/ml; Sigma; St. Louis, MO) HBSS containing 0.1% (w/v) BSA, the washes pooled, and total and differential cells counts determined for each pooled cell suspension. Each test material was evaluated in a group of five mice, each of which was injected subcutaneously in the thigh with 0.2 ml of test material in HBSS 24 h prior to the i.p. injection of the inflammatory stimulus.

TF = test: Monocyte-associated tissue factor (TF) ELISA; format: cell-based; conditions: human PBMC cultured 18-24 h with LPS; cell lysate, IMMUBIND Tissue Factor ELISA; IC50 estimated from graph
Procedure: Tissue Factor (TF): Monocyte-associated TF was quantitated in the following manner. PBMC were cultured in 48-well tissue culture plates as described below for PAF and LTB4 assays. At the end of the culture period (18-24 h) the supernatants were removed and stored frozen for cytokine assays. The wells of the plates were washed once with PBS and to each well was added 100 µL of Triton X-100 (10% [v/v] in H2O; Sigma, St. Louis, MO). The plates were placed on an orbital shaker for 12-18 h at 4°C and a speed of ~ 125 rpm. To each well was added 900 µL of sample buffer (10 mM PBS, pH 7.4, with 1% [w/v] BSA). The contents of each well were mixed well and removed for quantitation of TF using an IMMUBIND® Tissue Factor ELISA kit (American Diagnostica; Stamford, CT) according to the manufacturer’s instructions. Samples were diluted 1:10 in sample buffer prior to being assayed.

[3] = tested on: blood leukocyte and platelet counts; test: Blood cell counts (WBC, PLT) in mouse carrageenan DIC model; format: in vivo, mouse (CD-1); conditions: 245 nmol i.p. 18 h before carrageenan
Procedure: (§1) Groups of 10 male CD-1 mice were injected i.p. with 0.25 ml of either vehicle (PBS) or peptide in vehicle at varying times prior to the i.p. injection of 1.0 ml of carrageenan (0.45% [w/v] in PBS; Sigma). In experiments where serum cytokine levels were determined, groups of 5 mice were euthanized at 1-, 2-, 4-, 8-, and 24-h post injection of carrageenan, blood collected by cardiac puncture into heparinized syringes, and the resultant plasma stored at −80°C until assayed by ELISA. […] At 1-, 2-, 4-, and 24-h post injection of carrageenan, five mice from each group were euthanized and heparinized blood samples collected from the heart using heparinized syringes for subsequent determinations of WBC (white blood cell) counts, RBC (red blood cell) counts, or PLT (platelet) counts.

HUVEC [4] = test: TNF-α-induced necrosis in HUVEC (Cell Death Detection ELISA, supernatant); format: cell-based, human; conditions: HUVEC pretreated 3 h with 6.25-50 µM peptide, TNF-α 100 ng/ml, overnight
Procedure: Apoptosis was measured in HUVEC using the Cell Death Detection ELISA^PLUS kit (Roche Diagnostics; Indianapolis, IN) according to the manufacturer's instructions. This assay is based on a quantitative sandwich-enzyme-immunoassay using mouse monoclonal antibodies directed against both DNA and histones, respectively. It allows the specific determination of mono- and oligonucleosomes in the cytoplasmic fraction of cell lysates (apoptosis) and in the supernatant of dying cells (necrosis). The apoptotic index (AI) was calculated as
where treatment refers to use of a known apoptosis- or necrosis-inducing agent (staurosporine, TNF-α).

paw inflammation = test: Carrageenan-induced paw inflammation in mice; format: in vivo, mouse; conditions: compared with peritonitis model; data not shown
dengue virus = test: Vascular leak in liver of mice injected with dengue virus; set-up: species or system mouse; conditions: 1 µg intraperitoneal; dengue virus i.v.; preliminary in vivo studies
[5] = mice; data not shown
[6] = tested on: endothelial nitric oxide synthase (eNOS) mRNA; test: RT-PCR of eNOS mRNA in HUVEC; format: cell-based, human; conditions: data not shown
Procedure: Cells were cultured with various concentrations of test materials, either with or without stimulus, for varying times. The cells were collected, washed and total RNA isolated using the RNeasy Mini Kit (Qiagen; Valencia, CA). Following isolation the RNA was treated with 7 units of DNase I according to the RNase-Free DNase Set (Qiagen; Valencia, CA) protocol. Using these procedures we usually obtained ∼50 µg of total RNA/10^7 cells. cDNA was prepared from the isolated mRNAs and RT-PCR performed on the target cytokines/chemokines/growth factors using appropriate primer pairs and a control primer pair for β-actin (all from R & D Systems; Minneapolis, MN). RT-PCR was generally performed for 30 cycles for β-actin and 35–45 cycles for iNOS and VEGF.

carrageenan-induced DIC = test: Mouse carrageenan-induced DIC model, lethality; format: in vivo, mouse (CD-1)
Procedure: as §1

[7] = reason why binding studies were performed at 37°C

Compound | inhibition of association of [125I]-MN20054 with HUVEC (HUVEC [1]) | anti-inflammatory activity in peritonitis model [2] | IC50 (TF) [µM] | effect on carrageenan-induced leukocytosis (WBC) [3] | PLT count of treated mice, percent of normal ([3]; over the 24 h period) | protection against TNF-α-induced necrosis (HUVEC [4]) | inhibition of binding/uptake of [125I]-MN20054 by HUVEC (HUVEC [1]; 37°C (Figure 7)) [%] | activity in carrageenan-induced paw inflammation (paw inflammation) | effect on vascular leak in the liver of dengue virus-injected mice (dengue virus) | time to detection in the blood after s.c. injection [5] [min] | effect on expression of mRNA for eNOS [6] | protection in lethal model of carrageenan-induced DIC (carrageenan-induced DIC; 73 nmol) | mice protected from lethal carrageenan (carrageenan-induced DIC; 30 µg (7 nmol) i.p. 18 h prior to carrageenan, groups of 10 CD-1 mice) | survival time after carrageenan (carrageenan-induced DIC; 1 mg (245 nmol) i.p. before i.p. carrageenan, 120 h longest time observed) | solubility at lower temperatures [7]
H-LGGEKLFLLDGRNQLC-OH (disulfide (positions not given here)) [MN20050] | no significant inhibition | no anti-inflammatory activity | > 100 |  |  |  |  |  |  |  |  |  |  |  | 
CC(C)C[C@H](NC(=O)CNC(=O)CNC(=O)[C@H](CCC(=O)O)NC(=O)[C@H](CCCCN)NC(=O)[C@H](CC(C)C)NC(=O)[C@H](Cc1ccccc1)NC(=O)[C@H](CC(C)C)NC(=O)[C@H](CC(C)C)NC(=O)[C@H](CC(=O)O)NC(=O)[C@H](CC(C)C)NC(=O)CNC(=O)[C@H](CCCNC(=N)N)NC(=O)[C@H](CCCNC(=N)N)NC(=O)[C@H](CC(N)=O)NC(=O)[C@H](CCC(N)=O)NC(=O)[C@@H](N)CC(C)C)C(=O)N[C@@H](CSSC[C@H](NC(=O)[C@H](CC(C)C)NC(=O)CNC(=O)CNC(=O)[C@H](CCC(=O)O)NC(=O)[C@H](CCCCN)NC(=O)[C@H](CC(C)C)NC(=O)[C@H](Cc1ccccc1)NC(=O)[C@H](CC(C)C)NC(=O)[C@H](CC(C)C)NC(=O)[C@H](CC(=O)O)NC(=O)[C@H](CC(C)C)NC(=O)CNC(=O)[C@H](CCCNC(=N)N)NC(=O)[C@H](CCCNC(=N)N)NC(=O)[C@H](CC(N)=O)NC(=O)[C@H](CCC(N)=O)NC(=O)[C@@H](N)CC(C)C)C(=O)O)C(=O)O [MN10021] (I: H-LQNRRGLDLLFLKEGGLC-OH / II: H-LQNRRGLDLLFLKEGGLC-OH; disulfide I:18-II:18) | 77% |  | 12.5 | prevented much of the leukocytosis | approximately 50% | significant protection; also recorded: block almost completely | ~75 | equally active | inhibit the vascular leak | ≤ 15 | Neither MN10021 nor DUK0005 affected | completely protects | approximately 50% | at least 120 h | insolubility
